Entries after “also recorded” stand apart in the source; their conditions may differ.
Legend:
angiogenesis = conditions: cited from earlier work
NNK-induced lung cancer = NNK-induced lung cancer model; cited from earlier work
HCA-7 cells [1] = assay: Differential gene expression after NS-398 treatment (SSH, differential screening, Northern blotting); assay type: cell-based
Experimental: Cell culture. The HCA-7 cells, which are derived from a rectal carcinoma, were kindly provided by Dr. Susan Kirkland (ICRF, London, UK). Cells were cultured at 37° C. with 5% CO2 in McCoy's 5A medium containing penicillin, streptomycin, 10% FBS (Life Technologies, Inc., Grand Island, N.Y.). NS-398 and nimesulide (Cayman chemicals, Ann Arbor, Mich.), sulindac sulfide (Merck & Co., Rahway, N.J.) and SC-58125 (G.D. Searle Co., St. Louis, Mo.) were dissolved in DMSO prior to addition to cell culture medium. Experimental controls were treated with 0.1% DMSO.
mRNA isolation. Total cellular RNA was isolated using Tri-Reagent (Molecular Research Center, Inc., Cincinnati, Ohio) and polyadenylated RNA was isolated using a mRNA Purification Kit (Amersham Pharmacia Biotech, Inc., Piscataway, N.J.).
Suppression subtractive hybridization. SSH was performed with the PCR-Select™ cDNA Subtraction Kit (Clontech Laboratories Inc., Palo Alto, Calif.) as described by the manufacturer except for slight modifications of the PCR and hybridization conditions. Starting material consisted of 2 μg of mRNA from NS-398 treated HCA-7 cells and 2 μg of mRNA from control cells. After synthesis of the first and second cDNA strands, the cDNA was digested with Rsa I to obtain shorter, blunt-ended molecules. Then ligation of two different adapters to the cDNA fragments was performed separately. The adapter sequences were as follows: 5′-[…]-3′ (adapter 1-SEQ ID NO: 52) and 5′-[…]-3′ (adapter 2R-SEQ ID NO: 53). For the first round hybridization, the mixture of driver and tester cDNA were denatured at 98° C. for 1.5 min and then maintained at 68° C. for ˜10 h. For the second round hybridization, driver cDNA was denatured at 98° C. for 1.5 min and then added to the mixture of the two previous hybridization and allowed to incubate at 68° C. for ˜18 h.
After two rounds of hybridization, two rounds of PCR were performed to amplify the specific, differentially expressed cDNA fragments. All PCR reactions were performed using a PTC-100 thermal cycler (MJ Research, Inc. Watertown, Mass.). The primer used in first round is 5′-[…]-3′ (primer 1-SEQ ID NO: 54) and the primers used in second round were 5′-[…]-3′ (nested primer 1-SEQ ID NO: 55) and 5′-[…]-3′ (nested primer 2R -SEQ ID NO: 56). Cycling parameters are as follows: for the first round, 27 cycles of 94° C. for 30 s, 64° C. for 30 s and 71° C. for 1.5 min; for the second round, 15 cycles of 94° C. for 30 s, 68° C. for 30 s and 72° C. for 1.5 min.
To evaluate subtractive efficiency, the same amount of subtracted and unsubtracted secondary PCR products were applied as templates, and GAPDH primers were used to perform PCR. The PCR products were examined in a 2.0% agarose/EtBr gel to detect the abundance of GAPDH. After evaluation of the subtractive efficiency, the subtracted PCR products were cloned directly into the pCR2.1-TOPO vector (InVitrogen, Carlsbad, Calif.). Plates were incubated at 37° C. until small clones were visible and the blue/white staining could be clearly distinguished.
Differential screening. Differential screening was performed by using the PCR-Select™ Differential Screening Kit (Clontech) according to the users manual. After picking the recombinant clones from the subtractive library and identifying them by restriction digestion, the insert was PCR amplified in 20 μl volume reactions using nested PCR primer 1 and 2R. After amplification, 5 μl of the PCR product was denatured with 5 μl of 0.6 N NaOH and then 1.5 μl of each mixture was transferred to a nylon membrane. Each cDNA fragment was arrayed in duplicate in each blot and two identical blots were prepared for hybridization with different probes. The total secondary PCR amplified products from the forward and reverse SSH were used as probes. After washing, the membranes were exposed overnight to Kodak BioMax MR x-ray film (Eastman Kodak Company, Rochester, N.Y.) with and intensifying screen at −70° C.
Northern blotting. […]

prostate carcinoma cells = conditions: cited from earlier work
[2] = test system: different types of cancer cell lines; conditions: cited from earlier work
HCA-7 cells [3] = assay: HCA-7 cell growth following treatment; assay type: cell-based; conditions: following treatment with NS-398
[4] = test system: AOM induced colon carcinogenesis; conditions: AOM induced colon carcinogenesis rat model; cited from earlier work
[5] = test system: human colon carcinoma cells; conditions: cited from earlier work
[6] = cited from earlier work
[7] = cited from earlier work; remark: listed apart in the source
[8] = 100 μM NS-398 for 4 days, down = decreased levels following treatment, -fold decrease
[9] = 100 μM NS-398 for 4 days, up = increased levels following treatment, -fold increase

## CS(=O)(=O)Nc1ccc([N+](=O)[O-])cc1OC1CCCCC1 [NS-398]
angiogenesis
  Anti-angiogenic effects: anti-angiogenic effects
NNK-induced lung cancer
  Chemopreventive effects: chemopreventive effects
HCA-7 cells [1]; [8]
  Regulation by NS-398: Cyclin K (AF060515): down (2.1) fold
  Regulation by NS-398: KIAA0101 (D14657): down (2.7) fold
  Regulation by NS-398: Proliferation associated p100 protein (AF098158): down (2.2) fold
HCA-7 cells [1]; [9]
  Regulation by NS-398: Dynamin 2 (NM_004945): up (3.1) fold
  Regulation by NS-398: ENH, LIM protein (similar to rat protein kinase C-binding enigma) (NM_006457): up (3.0) fold
  Regulation by NS-398: FAT tumor suppressor (Drosophila) homolog (NM_005245): up (4.4) fold
  Regulation by NS-398: LIP.1 (LAR-interacting protein 1b) (U22816): up (3.4) fold
  Regulation by NS-398: PCDH7 (BH-Pcdh) (AB06757): up (26.0) fold
  Regulation by NS-398: Pdcd4 (Programmed cell death) (NM_011050): up (1.5) fold
HCA-7 cells [1]; gene named in the value
  Regulation of named genes by NS-398, stated in words: genes that were down-regulated by NS-398, one was designated as NRG-1; also recorded: Cyclin K was found to be down-regulated; also recorded: Pdcd4, Dynamin 2 and LIP.1 are all up-regulated; also recorded: ENH is a LIM protein whose levels are increased
Prostate carcinoma cells
  Induction of apoptosis: induce apoptosis
[2]
  Effect on tumor growth: suppress tumor growth
HCA-7 cells [3]
  Inhibition of HCA-7 cell growth: significant inhibition
[4]
  Chemopreventive effects: chemopreventive effects
[5]
  Induction of apoptosis: induce apoptosis

## CC1=C(CC(=O)O)c2cc(F)ccc2/C1=C\c1ccc([S+](C)[O-])cc1 (stereo not drawn) [sulindac, (Z)-5-Fluoro-2-methyl-1-((4(methylsulfinyl)phenyl)methylene) 1H-indene-3-acetic acid]
[6]; abdominal pain and nausea most frequent
  Mild gastrointestinal effects, share of patients: ~20%
[6]; human, in vivo
  Skin rash and pruritus, share of patients: 5%
[7]
  Drug absorbed after oral administration: about 90%
[7]; fasting patients, oral
  Time to peak plasma levels: about 2 hours

Reference: patent US20030100540A1, “Identification of NSAID-regulated genes” (Vanderbilt University, priority 2001, published 2003)
